Data as given in the supplement of paper PMC10307832.

Experiments:
Assay in all cases: relative viability (nuclei count vs DMSO), 5 days (fraction); higher = more cells survive
[1] = compound: C1COCCN1C2=NC(=NC3=C2OC4=C3C=CC=N4)C5=CC(=CC=C5)NC(=O)C6=CN=C(C=C6)N + N=C(N)NC(=N)NCCc1ccccc1 [Phenformin] (partner 250 µM)
Method in brief: (§1)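 Five library-drug doses in √10 steps were combined with a fixed anchor-drug dose, or a single drug was given alone, by pin tool to lung cancer cell lines in 1536-well plates the day after seeding. Nuclei were stained and counted after 5 days. Relative viability is the nuclei count in treated wells over that in vehicle wells, taken as the median of duplicate plates.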

SGI-1776 + Luminespib = compound: CN1CCC(CNc2ccc3ncc(-c4cccc(OC(F)(F)F)c4)n3n2)CC1 [SGI-1776] + CCNC(=O)c1noc(-c2cc(C(C)C)c(O)cc2O)c1-c1ccc(CN2CCOCC2)cc1 [Luminespib] (partner 0.01 µM)
Method in brief: as §1

SGI-1776 + Crizotinib = compound: CN1CCC(CNc2ccc3ncc(-c4cccc(OC(F)(F)F)c4)n3n2)CC1 [SGI-1776] + C[C@@H](Oc1cc(-c2cnn(C3CCNCC3)c2)cnc1N)c1c(Cl)ccc(F)c1Cl [Crizotinib] (partner 1 µM)
Method in brief: as §1

Entinostat + Lapatinib = compound: Nc1ccccc1NC(=O)c1ccc(CNC(=O)OCc2cccnc2)cc1 [Entinostat] + CS(=O)(=O)CCNCc1ccc(-c2ccc3ncnc(Nc4ccc(OCc5cccc(F)c5)c(Cl)c4)c3c2)o1 [Lapatinib] (partner 2 µM)
Method in brief: as §1

Row | Cell Line | relative viability ([1]; first compound 0.02 µM) | relative viability ([1]; first compound 0.06325 µM) | relative viability ([1]; first compound 0.2 µM) | relative viability ([1]; first compound 0.6325 µM) | relative viability ([1]; first compound 2 µM) | relative viability (SGI-1776 + Luminespib; first compound 0.08 µM) | relative viability (SGI-1776 + Luminespib; first compound 0.8 µM) | relative viability (SGI-1776 + Luminespib; first compound 2.53 µM) | relative viability (SGI-1776 + Luminespib; first compound 8 µM) | relative viability (SGI-1776 + Crizotinib; first compound 0.08 µM) | relative viability (SGI-1776 + Crizotinib; first compound 0.8 µM) | relative viability (SGI-1776 + Crizotinib; first compound 2.53 µM) | relative viability (SGI-1776 + Crizotinib; first compound 8 µM) | relative viability (Entinostat + Lapatinib; first compound 0.02 µM) | relative viability (Entinostat + Lapatinib; first compound 0.06325 µM) | relative viability (Entinostat + Lapatinib; first compound 0.2 µM) | relative viability (Entinostat + Lapatinib; first compound 0.6325 µM) | relative viability (Entinostat + Lapatinib; first compound 2 µM)
1 | NCI-H1915 | 0.338 | 0.383 | 0.397 | 0.392 | 0.302 | 0.778 | 0.843 | 0.75 | 0.684 | 0.945 | 0.864 | 0.833 | 0.918 | 0.985 | 1.05 | 1.01 | 0.633 | 0.315
2 | NCI-H1944 | 0.217 | 0.244 | 0.182 | 0.194 | 0.142 | 0.871 | 0.67 | 0.669 | 0.618 | 1.1 | 0.956 | 1.03 | 0.867 | 0.851 | 0.768 | 0.787 | 0.354 | 0.271
3 | NCI-H1975 | 0.394 | 0.416 | 0.388 | 0.37 | 0.243 | 0.302 | 0.137 | 0.208 | 0.106 | 0.999 | 0.833 | 0.771 | 0.441 | 0.812 | 0.801 | 0.669 | 0.274 | 0.189
4 | NCI-H1993 | 0.483 | 0.498 | 0.501 | 0.513 | 0.522 | 0.882 | 0.964 | 0.676 | 0.652 | 0.917 | 0.894 | 0.858 | 0.725 | 0.749 | 0.911 | 0.867 | 0.728 | 0.69
5 | NCI-H2009 | 0.468 | 0.485 | 0.449 | 0.371 | 0.242 | 1.04 | 1.03 | 0.977 | 0.955 | 1.04 | 1.02 | 1.07 | 0.675 | 0.954 | 0.984 | 0.827 | 0.685 | 0.396
6 | NCI-H2023 | 0.424 | 0.457 | 0.346 | 0.32 | 0.156 | 0.746 | 0.77 | 0.693 | 0.363 | 0.565 | 0.621 | 0.56 | 0.333 | 0.633 | 0.585 | 0.261 | 0.129 | 0.0771
7 | NCI-H2085 | 0.686 | 0.753 | 0.678 | 0.629 | 0.398 | 0.481 | 0.44 | 0.513 | 0.333 | 0.858 | 0.767 | 0.853 | 0.71 | 0.748 | 0.825 | 0.744 | 0.545 | 0.443
8 | NCI-H2087 | 0.515 | 0.595 | 0.495 | 0.447 | 0.31 | 0.138 | 0.212 | 0.183 | 0.17 | 0.724 | 0.907 | 1.19 | 0.758 | 1.03 | 0.792 | 0.861 | 0.536 | 0.54
9 | NCI-H2126 | 0.535 | 0.553 | 0.524 | 0.461 | 0.441 | 0.933 | 0.972 | 0.947 | 0.774 | 1.01 | 1.04 | 1.08 | 0.968 | 0.794 | 0.78 | 0.759 | 0.421 | 0.385
10 | NCI-H2170 | 0.427 | 0.439 | 0.408 | 0.407 | 0.388 | 0.723 | 0.669 | 0.668 | 0.419 | 1.13 | 1.28 | 1.17 | 0.969 | 0.289 | 0.3 | 0.304 | 0.244 | 0.216
11 | NCI-H2228 | 0.322 | 0.392 | 0.273 | 0.233 | 0.222 | 0.169 | 0.139 | 0.164 | 0.13 | 0.523 | 0.417 | 0.396 | 0.15 | 1.12 | 1.02 | 1.08 | 0.457 | 0.315
12 | NCI-H2347 | 0.356 | 0.369 | 0.308 | 0.449 | 0.277 | 0.344 | 0.558 | 0.324 | 0.539 | 0.687 | 0.637 | 0.772 | 0.511 | 1.05 | 0.983 | 0.784 | 0.502 | 0.369
13 | NCI-H2405 | 0.373 | 0.41 | 0.37 | 0.353 | 0.338 | 0.647 | 0.632 | 0.538 | 0.452 | 0.857 | 0.809 | 0.854 | 0.642 | 1.16 | 1.42 | 1.08 | 1.04 | 0.625
14 | NCI-H3122 | 0.619 | 0.359 | 0.347 | 0.372 | 0.343 | 0.089 | 0.096 | 0.0857 | 0.0863 | 0.284 | 0.3 | 0.295 | 0.335 | 1.02 | 1.07 | 1.09 | 0.917 | 0.893
15 | PC-3 [JPC-3] | 0.485 | 0.491 | 0.453 | 0.469 | 0.443 | 0.739 | 0.573 | 0.741 | 0.628 | 0.978 | 1.05 | 0.981 | 0.904 | 0.448 | 0.451 | 0.397 | 0.348 | 0.302
16 | PC-14 | 0.478 | 0.36 | 0.397 | 0.446 | 0.268 | 0.154 | 0.138 | 0.126 | 0.129 | 0.889 | 0.895 | 0.96 | 0.79 | 0.293 | 0.29 | 0.146 | 0.151 | 0.105
17 | RERF-LC-KJ | 0.416 | 0.484 | 0.395 | 0.426 | 0.291 | 1.23 | 1.17 | 0.904 | 0.688 | 0.886 | 0.786 | 0.836 | 0.865 | 0.775 | 0.794 | 0.816 | 0.476 | 0.321
18 | SK-LU-1 | 0.56 | 0.488 | 0.513 | 0.567 | 0.349 | 0.217 | 0.192 | 0.19 | 0.167 | 1.04 | 0.833 | 0.756 | 0.352 | 0.825 | 0.775 | 0.55 | 0.573 | 0.516
